Laboratory results published in patent publication US10582709B2, “Butyrolactones as herbicides” (FMC Corporation, priority 2015, dated 2020).

tested on: ragweed (common ragweed, Ambrosia elatior); assay: Test A preemergence, ragweed; format: in vivo; details: 125 g ai/ha, visual rating after approx. 10 d, 0 to 100 scale, 0 no effect, 100 complete control
Text: (§1) Seeds of plant species selected from barnyardgrass (Echinochloa crus-galli), crabgrass (large crabgrass, Digitaria sanguinalis), kochia (Kochia scoparia), ragweed (common ragweed, Ambrosia elatior), morningglory (Ipomoea spp.), velvetleaf (Abutilon theophrasti), ryegrass, Italian (Italian ryegrass, Lolium multiflorum), foxtail, giant (giant foxtail, Setaria faberii), wheat (Triticum aestivum), corn (Zea mays), and pigweed (Amaranthus retroflexus), were planted into a blend of loam soil and sand and treated preemergence with a directed soil spray using test chemicals formulated in a non-phytotoxic solvent mixture which included a surfactant. At the same time, plants selected from these crop and weed species and also blackgrass (Alopecurus myosuroides), and galium (catchweed bedstraw, Galium aparine), were planted in pots containing the same blend of loam soil and sand and treated with postemergence applications of test chemicals formulated in the same manner. Plants ranged in height from 2 to 10 cm and were in the one- to two-leaf stage for the postemergence treatment. Treated plants and untreated controls were maintained in a greenhouse for approximately 10 d, after which time all treated plants were compared to untreated controls and visually evaluated for injury. Plant response ratings, summarized in Table A, are based on a 0 to 100 scale where 0 is no effect and 100 is complete control. A dash (-) response means no test result.

Structure (SMILES) | Plant response rating, Ragweed
O=C(Nc1cccc(F)c1F)C1C(=O)OCC1c1ccc(C(F)(F)F)cc1 (racemic) [Compound 7] | 0

same assay, conditions: 500 g ai/ha, visual rating after approx. 10 d, 0 to 100 scale, 0 no effect, 100 complete control

Structure (SMILES) | Plant response rating, Ragweed
O=C(Nc1cccc(F)c1F)C1C(=O)OCC1c1ccc(C(F)(F)F)cc1 (racemic) [Compound 7] | 0

tested on: blackgrass (Alopecurus myosuroides); assay: Test A postemergence, blackgrass; format: in vivo; details: 125 g ai/ha, visual rating after approx. 10 d, 0 to 100 scale, 0 no effect, 100 complete control
Text: as §1

Structure (SMILES) | Plant response rating, Blackgrass
O=C(Nc1cccc(F)c1F)C1C(=O)OCC1c1ccc(C(F)(F)F)cc1 (racemic) [Compound 7] | 0

same assay, conditions: 500 g ai/ha, visual rating after approx. 10 d, 0 to 100 scale, 0 no effect, 100 complete control

Structure (SMILES) | Plant response rating, Blackgrass
O=C(Nc1cccc(F)c1F)C1C(=O)OCC1c1ccc(C(F)(F)F)cc1 (racemic) [Compound 7] | 0

tested on: galium (catchweed bedstraw, Galium aparine); assay: Test A postemergence, galium; format: in vivo; details: 125 g ai/ha, visual rating after approx. 10 d, 0 to 100 scale, 0 no effect, 100 complete control
Text: as §1

Structure (SMILES) | Plant response rating, Galium
O=C(Nc1cccc(F)c1F)C1C(=O)OCC1c1ccc(C(F)(F)F)cc1 (racemic) [Compound 7] | 0

same assay, conditions: 500 g ai/ha, visual rating after approx. 10 d, 0 to 100 scale, 0 no effect, 100 complete control

Structure (SMILES) | Plant response rating, Galium
O=C(Nc1cccc(F)c1F)C1C(=O)OCC1c1ccc(C(F)(F)F)cc1 (racemic) [Compound 7] | 0

tested on: ryegrass, Italian (Italian ryegrass, Lolium multiflorum); assay: Test A postemergence, Italian ryegrass; format: in vivo; details: 125 g ai/ha, visual rating after approx. 10 d, 0 to 100 scale, 0 no effect, 100 complete control
Text: as §1

Structure (SMILES) | Plant response rating, Ryegrass, Italian
O=C(Nc1cccc(F)c1F)C1C(=O)OCC1c1ccc(C(F)(F)F)cc1 (racemic) [Compound 7] | 0

same assay, conditions: 500 g ai/ha, visual rating after approx. 10 d, 0 to 100 scale, 0 no effect, 100 complete control

Structure (SMILES) | Plant response rating, Ryegrass, Italian
O=C(Nc1cccc(F)c1F)C1C(=O)OCC1c1ccc(C(F)(F)F)cc1 (racemic) [Compound 7] | 0

tested on: ryegrass, Italian (Italian ryegrass, Lolium multiflorum); assay: Test A preemergence, Italian ryegrass; format: in vivo; details: 125 g ai/ha, visual rating after approx. 10 d, 0 to 100 scale, 0 no effect, 100 complete control
Text: as §1

Structure (SMILES) | Plant response rating, Ryegrass, Italian
O=C(Nc1cccc(F)c1F)C1C(=O)OCC1c1ccc(C(F)(F)F)cc1 (racemic) [Compound 7] | 0

same assay, conditions: 500 g ai/ha, visual rating after approx. 10 d, 0 to 100 scale, 0 no effect, 100 complete control

Structure (SMILES) | Plant response rating, Ryegrass, Italian
O=C(Nc1cccc(F)c1F)C1C(=O)OCC1c1ccc(C(F)(F)F)cc1 (racemic) [Compound 7] | 0

tested on: corn (Zea mays); assay: Test A postemergence, corn; format: in vivo; details: 125 g ai/ha, visual rating after approx. 10 d, 0 to 100 scale, 0 no effect, 100 complete control
Text: as §1

Structure (SMILES) | Plant response rating, Corn
O=C(Nc1cccc(F)c1F)C1C(=O)OCC1c1ccc(C(F)(F)F)cc1 (racemic) [Compound 7] | 0

same assay, conditions: 500 g ai/ha, visual rating after approx. 10 d, 0 to 100 scale, 0 no effect, 100 complete control

Structure (SMILES) | Plant response rating, Corn
O=C(Nc1cccc(F)c1F)C1C(=O)OCC1c1ccc(C(F)(F)F)cc1 (racemic) [Compound 7] | 0

tested on: barnyardgrass (Echinochloa crus-galli); assay: Test A preemergence, barnyardgrass; format: in vivo; details: 125 g ai/ha, visual rating after approx. 10 d, 0 to 100 scale, 0 no effect, 100 complete control
Text: as §1

Structure (SMILES) | Plant response rating, Barnyardgrass
O=C(Nc1cccc(F)c1F)C1C(=O)OCC1c1ccc(C(F)(F)F)cc1 (racemic) [Compound 7] | 0

same assay, conditions: 500 g ai/ha, visual rating after approx. 10 d, 0 to 100 scale, 0 no effect, 100 complete control

Structure (SMILES) | Plant response rating, Barnyardgrass
O=C(Nc1cccc(F)c1F)C1C(=O)OCC1c1ccc(C(F)(F)F)cc1 (racemic) [Compound 7] | 30

tested on: barnyardgrass (Echinochloa crus-galli); assay: Test B flooded paddy test, barnyardgrass; format: in vivo; details: 250 g ai/ha; applied to paddy water at 2-leaf stage; 13 to 15 d; scale 0 no effect to 100 complete control
Experimental: (§2) Plant species in the flooded paddy test selected from rice (Oryza sativa), sedge, umbrella (small-flower umbrella sedge, Cyperus difformis), ducksalad (Heteranthera limosa), and barnyardgrass (Echinochloa crus-galli) were grown to the 2-leaf stage for testing. At time of treatment, test pots were flooded to 3 cm above the soil surface, treated by application of test compounds directly to the paddy water, and then maintained at that water depth for the duration of the test. Treated plants and controls were maintained in a greenhouse for 13 to 15 d, after which time all species were compared to controls and visually evaluated. Plant response ratings, summarized in Table B, are based on a scale of 0 to 100 where 0 is no effect and 100 is complete control. A dash (-) response means no test result.

Structure (SMILES) | Plant response rating, Flood, Barnyardgrass
O=C(Nc1cccc(F)c1F)C1C(=O)OCC1c1ccc(C(F)(F)F)cc1 (racemic) [Compound 7] | 0

same assay, conditions: 1000 g ai/ha; applied to paddy water at 2-leaf stage; 13 to 15 d; scale 0 no effect to 100 complete control

Structure (SMILES) | Plant response rating, Flood, Barnyardgrass
O=C(Nc1cccc(F)c1F)C1C(=O)OCC1c1ccc(C(F)(F)F)cc1 (racemic) [Compound 7] | 0

tested on: sedge, umbrella (small-flower umbrella sedge, Cyperus difformis); assay: Test B flooded paddy test, umbrella sedge; format: in vivo; details: 250 g ai/ha; applied to paddy water at 2-leaf stage; 13 to 15 d; scale 0 no effect to 100 complete control
Experimental: as §2

Structure (SMILES) | Plant response rating, Flood, Sedge, Umbrella
O=C(Nc1cccc(F)c1F)C1C(=O)OCC1c1ccc(C(F)(F)F)cc1 (racemic) [Compound 7] | 0

same assay, conditions: 1000 g ai/ha; applied to paddy water at 2-leaf stage; 13 to 15 d; scale 0 no effect to 100 complete control

Structure (SMILES) | Plant response rating, Flood, Sedge, Umbrella
O=C(Nc1cccc(F)c1F)C1C(=O)OCC1c1ccc(C(F)(F)F)cc1 (racemic) [Compound 7] | 0

tested on: barnyardgrass (Echinochloa crus-galli); assay: Test A postemergence, barnyardgrass; format: in vivo; details: 125 g ai/ha, visual rating after approx. 10 d, 0 to 100 scale, 0 no effect, 100 complete control
Text: as §1

Structure (SMILES) | Plant response rating, Barnyardgrass
O=C(Nc1cccc(F)c1F)C1C(=O)OCC1c1ccc(C(F)(F)F)cc1 (racemic) [Compound 7] | 0

same assay, conditions: 500 g ai/ha, visual rating after approx. 10 d, 0 to 100 scale, 0 no effect, 100 complete control

Structure (SMILES) | Plant response rating, Barnyardgrass
O=C(Nc1cccc(F)c1F)C1C(=O)OCC1c1ccc(C(F)(F)F)cc1 (racemic) [Compound 7] | 20
